According to paper PMC7450057, “Enhancing intracellular accumulation and target engagement of PROTACs with reversible covalent chemistry” (Nature Communications, 2020):
Values joined by “and” are separate entries in the source; they are usually repeats but may differ in a detail not shown here. Identical values can stand only once. Like-named read-outs stand apart in the source and are kept apart here.

Experiments:
BTK [1] = target: BTK (Homo sapiens, UniProt Q06187); assay: In vitro BTK kinase assay (PhosphoSens); assay type: biochemical; set-up: purchased SignalChem B10-10H-10; conditions: for IC50: AssayQuant BTK assay kit, 2.5 nM BTK, 1 mM ATP, duplicates, read-out: BTK inhibition IC50; for activity at 2.56 pM: drug concentration 2.56 pM; for activity at 12.8 pM: drug concentration 12.8 pM; for activity at 64 pM: drug concentration 64 pM; for activity at 0.00032 µM: drug concentration 320 pM; for activity at 0.0016 µM: drug concentration 1600 pM; for activity at 0.008 µM: drug concentration 8000 pM; for activity at 0.2 µM: drug concentration 200000 pM; for activity at 1 µM: drug concentration 1000000 pM
BTK (Homo sapiens, UniProt Q06187), sequence (Q06187 whole entry): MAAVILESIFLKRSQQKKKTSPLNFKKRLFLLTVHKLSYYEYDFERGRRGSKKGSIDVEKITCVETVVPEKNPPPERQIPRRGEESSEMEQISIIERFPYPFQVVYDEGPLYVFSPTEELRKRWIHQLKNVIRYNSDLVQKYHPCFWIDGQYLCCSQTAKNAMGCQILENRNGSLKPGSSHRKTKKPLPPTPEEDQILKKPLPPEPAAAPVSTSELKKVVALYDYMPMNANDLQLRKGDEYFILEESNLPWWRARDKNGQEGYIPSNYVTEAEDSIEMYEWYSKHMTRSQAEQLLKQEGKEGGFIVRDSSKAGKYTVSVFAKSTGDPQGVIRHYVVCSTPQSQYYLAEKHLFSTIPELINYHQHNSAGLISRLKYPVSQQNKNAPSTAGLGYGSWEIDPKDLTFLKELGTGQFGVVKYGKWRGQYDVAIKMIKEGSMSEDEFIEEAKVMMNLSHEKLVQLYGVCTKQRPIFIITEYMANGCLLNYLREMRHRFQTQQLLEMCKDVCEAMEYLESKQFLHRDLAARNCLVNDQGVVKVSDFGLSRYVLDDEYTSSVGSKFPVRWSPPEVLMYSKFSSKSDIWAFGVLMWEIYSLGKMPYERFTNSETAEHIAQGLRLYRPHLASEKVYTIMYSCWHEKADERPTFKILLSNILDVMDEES
Description: BTK kinase activity inhibition IC50 was measured by PhosphoSens® Kinase Assay Kit (Assay Quant Technologies Inc., Cat.# CSKS-AQT0101K). […] Active recombinant BTK was purchased from SignalChem (Cat.# B10-10H-10). All the drugs (3 warhead control and 4 PROTACs) were dissolved in DMSO (10 mM). […] To calculate the IC50, subtract the background fluorescence determined with the “no kinase” control for each time point from the total signal to obtain corrected Relative Fluorescence Units (RFU) values. Plot the corrected RFU vs. Time for each inhibitor concentration and determine the initial reaction rates (slope of the linear portion) for each progress curve for each inhibitor concentration. Then plot velocity (RFU corrected/minute) vs [inhibitor] and determine the IC50 using a 4-parameter logistic fit.

BTK [2] = target: BTK (Mus musculus, UniProt P35991); assay: BTK degradation in mouse B-cell lymphoma cell line derived from Eu-Myc mice; assay type: cell-based; set-up: endogenous in cells; host or cells: B cell lymphoma cell line derived from Eu-Myc mice; conditions: for BTK quantification (anti-BTK / anti-β-actin): Supplementary Figure 10, replicates, DMSO about 100
BTK (Mus musculus, UniProt P35991), sequence (P35991 whole entry): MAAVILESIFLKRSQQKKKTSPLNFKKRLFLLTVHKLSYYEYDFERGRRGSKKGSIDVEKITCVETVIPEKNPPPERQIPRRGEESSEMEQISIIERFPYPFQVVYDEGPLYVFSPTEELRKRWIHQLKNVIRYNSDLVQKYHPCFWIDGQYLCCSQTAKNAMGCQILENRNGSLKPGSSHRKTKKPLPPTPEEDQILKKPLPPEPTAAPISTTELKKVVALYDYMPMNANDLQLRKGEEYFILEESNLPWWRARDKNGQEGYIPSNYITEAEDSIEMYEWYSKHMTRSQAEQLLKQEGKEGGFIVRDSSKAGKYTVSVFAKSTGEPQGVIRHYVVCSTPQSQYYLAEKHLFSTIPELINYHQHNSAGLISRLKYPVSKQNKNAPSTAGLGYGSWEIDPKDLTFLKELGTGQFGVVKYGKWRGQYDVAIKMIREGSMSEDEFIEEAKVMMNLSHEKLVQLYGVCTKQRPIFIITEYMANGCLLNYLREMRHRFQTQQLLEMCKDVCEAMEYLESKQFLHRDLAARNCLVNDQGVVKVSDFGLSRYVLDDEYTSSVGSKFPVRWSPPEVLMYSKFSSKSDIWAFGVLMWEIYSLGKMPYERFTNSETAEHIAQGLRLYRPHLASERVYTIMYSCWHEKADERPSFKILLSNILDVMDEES
Description: MOLM-14 cell line was obtained from Dr. Conneely at Baylor College of Medicine, and the Mino cells were purchased from the American Type Culture Collection (ATCC, Cat. No. CRL-3000). Both cell lines were cultured in RPMI 1640 medium (Thermo Fisher Scientific, Cat. No. MT10040CV) supplemented with 10% fetal bovine serum (GE Healthcare, Cat. No. SH30071.03) and 1% Pen/Strep (Thermo Fisher Scientific, Cat. No. 15140163). The wild-type and C481S BTK XLA cell lines were gifts from Dr. Woyach at The Ohio State University and were cultured in RPMI 1640 medium with 15% fetal bovine serum, 1% Pen/Strep, and 1.0 µg/ml puromycin (Thermo Fisher Scientific, Cat. No. A1113803). HEK 293T/17 cells were purchased from ATCC (Cat. No. CRL-11268) were maintained in DMEM (Thermo Fisher Scientific, Cat. No. MT10013CV) with 10% fetal bovine serum and 1% Pen-Strep. The B cell lymphoma cell line derived from Eu-Myc mice was a gift from Dr. Yulin Li at Houston Methodist Research Institute and cultured in RPMI 1640 medium supplemented with 15% (v/v) fetal bovine serum (FBS), 100 U/mL penicillin, 100 μg/mL streptomycin, and 0.05 mM beta-mercaptoethanol and puromycin (1 μg/mL). Cells were grown at 37 °C with 5% CO2.
The collected cells and spleen tissues were lysed in RIPA lysis buffer (50 mM Tris-HCl, pH 7.4, 150 mM NaCl, 1% NP-40, 0.5% sodium deoxycholate, 0.1% SDS) supplemented with Halt™ Protease and Phosphatase Inhibitor Cocktail (Thermo Fisher Scientific, Cat. No. PI78440) immediately before use. Lysates were centrifuged at 15,000 × g for 10 min at 4 °C and the supernatant was quantified for total protein concentration using the Pierce BCA Protein Assay (Thermo Fisher Scientific, Cat. No. 23225). Thirty micrograms of protein were loaded onto sodium dodecyl sulfate−polyacrylamide gel for electrophoresis (Bio-Rad) and transferred onto PVDF membranes (Millipore, Cat. No. IPVH00010). […] Imaging was performed using the ECL Prime chemiluminescent western blot detection reagents (GE Healthcare, Cat. No. RPN2232) by visualization of the blots to X-Ray film or with an Imager (Kindle Biosciences, Cat. No. D1001). All western blots were subsequently processed and quantified with Imager software. Protein level was normalized to β-actin or GAPDH loading controls.

MOLM-14 cells = assay: AlamarBlue cell viability assay, MOLM-14; conditions: for MOLM-14 Cell Viability%: Figure 2f, 5 replicates; for Cell viability, MOML-14: Supplementary Figure 7, replicates
Description: The IC50 was calculated using GraphPad Prism software with a four-parameter dose-response curve fit.

BTK-NanoLuc fusion = target: T1, BTK-NanoLuc fusion (Homo sapiens, UniProt Q06187); assay: NanoBRET BTK in-cell target engagement assay; assay type: cell-based; conditions: for K′P,D (relative intracellular accumulation coefficient): Kd (BTK)/IC50,TE (BTK)
T1 construct: host or cells: HEK 293T/17
T1 sequence (Q06187 whole entry, the tested form may be a part): as the sequence (Q06187 whole entry) above
How it was run: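 Tracer-displacement IC50 derived from background-corrected BRET ratio (450 nm donor, 610 nm acceptor) in live HEK293/T17 cells transfected with BTK-NanoLuc. Cells were exposed for 2 h at 37 °C to 1.0 µM tracer plus 5-fold serial dilutions of compound from 10 µM.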

[3] = Supplementary Figure 5, replicates, read-out: Inhibition(%)
[4] = Homo sapiens, MOLM-14, 72 h, read-out: Cell viability IC50, MOLM-14 cells, 72 h, Alamar Blue
[5] = Figure 3c, 1.00E-05 M, triplicates
[6] = Figure 3c, 1.60E-08 M, triplicates
[7] = Figure 3c, 2.00E-06 M, triplicates
[8] = Figure 3c, 3.20E-09 M, triplicates
[9] = Figure 3c, 4.00E-07 M, triplicates
[10] = Figure 3c, 8.00E-08 M, triplicates
[11] = HEK-293 cells, BTK tracer 1.0 µM, Table 1 / Fig. 3c, triplicates, read-out: BTK TE IC50,TE

CN(CCCNC(=O)CNc1cccc2c1C(=O)N(C1CCC(=O)NC1=O)C2=O)C(C)(C)C=C(C#N)C(=O)N1CCC[C@@H](n2nc(-c3ccc(Oc4ccccc4)cc3)c3c(N)ncnc32)C1 (stereo partly drawn) [RC-1]
IC50 (BTK [1]): 1.8 nM
activity at 2.56 pM (BTK [1]; [3]): 87.3%
activity at 12.8 pM (BTK [1]; [3]): 93.2%
activity at 64 pM (BTK [1]; [3]): 89.4%
activity at 0.00032 µM (BTK [1]; [3]): 87.3%
activity at 0.0016 µM (BTK [1]; [3]): 55%
activity at 0.008 µM (BTK [1]; [3]): 8.41%
activity at 0.04 µM (BTK [1]; Supplementary Figure 5, drug concentration 40000 pM, replicates, read-out: Inhibition(%)): 3.46%
activity at 0.2 µM (BTK [1]; [3]): 2.91%
activity at 1 µM (BTK [1]; [3]): 2.99%
BTK quantification (anti-BTK / anti-β-actin) (BTK [2]; 8 nM): 63.6968 and 56.9893
BTK quantification (anti-BTK / anti-β-actin) (BTK [2]; 40 nM): 41.0784 and 35.9122
BTK quantification (anti-BTK / anti-β-actin) (BTK [2]; 200 nM): 29.8182 and 40.565
maximum BTK degradation (BTK [2]; dosed up to 25 µM, 24 h): 30–40%
MOLM-14 Cell Viability% (MOLM-14 cells; 1.00E-05 M): 9.063% and 7.786% and 9.631% and 4.44% and 5.17%
MOLM-14 Cell Viability% (MOLM-14 cells; 1.60E-08 M): 88.4631% and 84.0227% and 77.0073% and 72.5061% and 64.8418%
MOLM-14 Cell Viability% (MOLM-14 cells; 2.00E-06 M): 14.0511% and 10.5434% and 12.6318% and 8.942% and 10.7462%
MOLM-14 Cell Viability% (MOLM-14 cells; 3.20E-09 M): 89.923% and 89.9432% and 89.2741% and 70.2555% and 64.2336%
MOLM-14 Cell Viability% (MOLM-14 cells; 4.00E-07 M): 53.7916% and 40.7948% and 45.6813% and 36.6383% and 39.4972%
MOLM-14 Cell Viability% (MOLM-14 cells; 6.40E-10 M): 94.6269% and 96.3301% and 81.3058% and 78.386% and 72.2831%
MOLM-14 Cell Viability% (MOLM-14 cells; 8.00E-08 M): 69.5864% and 88.0779% and 68.3495% and 63.8078% and 82.5426%
IC50 (MOLM-14 cells; [4]): 300 nM
IC50 (MOLM-14 cells; read-out: Cell viability IC50, MOLM-14 cells, 72 h, Alamar Blue): 310 nM
NanoBRET(%) (BTK-NanoLuc fusion; [5]): 5.754% and 14.0151% and 10.6773%
NanoBRET(%) (BTK-NanoLuc fusion; [6]): 84.9586% and 87.9015% and 82.5703%
NanoBRET(%) (BTK-NanoLuc fusion; [7]): 6.342% and 5.596% and 5.448%
NanoBRET(%) (BTK-NanoLuc fusion; [8]): 98.0219% and 99.3574% and 101.289%
NanoBRET(%) (BTK-NanoLuc fusion; [9]): 9.4506% and 5.015% and 9.59%
NanoBRET(%) (BTK-NanoLuc fusion; [10]): 24.5688% and 19.6512% and 23.4022%
NanoBRET(%) (BTK-NanoLuc fusion; Figure 3d, 1.00E-05 M, triplicates): 9.378% and 8.307% and 3.455%
NanoBRET(%) (BTK-NanoLuc fusion; Figure 3d, 1.60E-08 M, triplicates): 87.0885% and 73.1635% and 80.126%
NanoBRET(%) (BTK-NanoLuc fusion; Figure 3d, 2.00E-06 M, triplicates): 4.9185% and 3.718% and 8.9958%
NanoBRET(%) (BTK-NanoLuc fusion; Figure 3d, 3.20E-09 M, triplicates): 95.2579% and 79.7394% and 93.8869%
NanoBRET(%) (BTK-NanoLuc fusion; Figure 3d, 4.00E-07 M, triplicates): 11.2221% and 10.3003% and 9.486%
NanoBRET(%) (BTK-NanoLuc fusion; Figure 3d, 8.00E-08 M, triplicates): 50.6504% and 43.13% and 35.3416%
IC50 (BTK-NanoLuc fusion; [11]): 43 nM
IC50 (BTK-NanoLuc fusion; HEK-293 cells, BTK tracer 1.0 µM, experiment of Fig. 3f, read-out: BTK target engagement IC50): 33 nM
K′P,D (relative intracellular accumulation coefficient) (BTK-NanoLuc fusion): 1.5 × 10^−1
BTK target engagement (BTK-NanoLuc fusion; at 40 nM): 50%
BTK target engagement (BTK-NanoLuc fusion; at 200 nM): 90%
IC50 (BTK-NanoLuc fusion; experiment of Fig. 3d, read-out: BTK target engagement IC50): 59 nM

CN(CC=CC(=O)N1CCCC(n2nc(-c3ccc(Oc4ccccc4)cc3)c3c(N)ncnc32)C1)CCCNC(=O)CNc1cccc2c1C(=O)N(C1CCC(=O)NC1=O)C2=O (stereo not drawn) [IRC-1]
IC50 (BTK [1]): 0.8 nM
activity at 2.56 pM (BTK [1]; [3]): 86.2%
activity at 12.8 pM (BTK [1]; [3]): 77.7%
activity at 64 pM (BTK [1]; [3]): 78.1%
activity at 0.00032 µM (BTK [1]; [3]): 65.7%
activity at 0.0016 µM (BTK [1]; [3]): 28%
activity at 0.008 µM (BTK [1]; [3]): 4.02%
activity at 0.2 µM (BTK [1]; [3]): 0.667%
activity at 1 µM (BTK [1]; [3]): 2.16%
diminished BTK inhibitory activity compared with corresponding warhead control (BTK [1]; ratio of IC50 values): < 3 fold
BTK quantification (anti-BTK / anti-β-actin) (BTK [2]; 8 nM): 93.1337 and 89.8918
BTK quantification (anti-BTK / anti-β-actin) (BTK [2]; 40 nM): 73.5656 and 73.5943
BTK quantification (anti-BTK / anti-β-actin) (BTK [2]; 200 nM): 64.1549 and 63.4726
IC50 (MOLM-14 cells; [4]): 2700 nM
Cell viability, MOML-14 (MOLM-14 cells; drug concentration 1.00E-05 M): 18.0378 and 23.8364 and 27.2416 and 22.4354 and 21.8906
Cell viability, MOML-14 (MOLM-14 cells; drug concentration 1.60E-08 M): 95.6375 and 84.8576 and 100.21 and 79.6428 and 95.3845
Cell viability, MOML-14 (MOLM-14 cells; drug concentration 2.00E-06 M): 77.6385 and 69.5439 and 88.1655 and 70.6919 and 85.8499
Cell viability, MOML-14 (MOLM-14 cells; drug concentration 3.20E-09 M): 83.1063 and 84.2544 and 98.5173 and 96.2017 and 79.9735
Cell viability, MOML-14 (MOLM-14 cells; drug concentration 4.00E-07 M): 95.365 and 106.398 and 86.1807 and 91.7653 and 81.4134
Cell viability, MOML-14 (MOLM-14 cells; drug concentration 6.40E-10 M): 91.6096 and 88.3017 and 105.931 and 90.734 and 74.6225
Cell viability, MOML-14 (MOLM-14 cells; drug concentration 8.00E-08 M): 76.0624 and 92.5825 and 94.7813 and 82.8144 and 77.7553
NanoBRET(%) (BTK-NanoLuc fusion; [5]): 10.4557% and 9.057% and 9.053%
NanoBRET(%) (BTK-NanoLuc fusion; [6]): 96.913% and 93.9025% and 100.93%
NanoBRET(%) (BTK-NanoLuc fusion; [7]): 7.89% and 9.51% and 9.23%
NanoBRET(%) (BTK-NanoLuc fusion; [8]): 94.8058% and 107.984% and 103.91%
NanoBRET(%) (BTK-NanoLuc fusion; [9]): 11.1403% and 9.255% and 17.6554%
NanoBRET(%) (BTK-NanoLuc fusion; [10]): 65.3589% and 58.7338% and 70.2106%
IC50 (BTK-NanoLuc fusion; [11]): 130 nM
K′P,D (relative intracellular accumulation coefficient) (BTK-NanoLuc fusion): 2.3 × 10^−2
BTK engagement (BTK-NanoLuc fusion; at 400 nM): ~ 100%
intracellular accumulation of RC-1 relative to the compound (BTK-NanoLuc fusion; from K′P,D values, BTK (Table 1)): 6 folds
